Like-named read-outs stand apart in the source and are kept apart here.
Tests used:
[1] = biological target: T1, CDK4/cyclin D3 (Homo sapiens, UniProt P11802); experiment: Human CDK4/cyclin D3 inhibitory activity (QS S Assist CDK4/Cyclin D3_FP Kit, IMAP fluorescence polarization); assay type: biochemical
T1 construct: purchased Carna Biosciences, Inc. QS S Assist CDK4/Cyclin D3_FP Kit
How it was run: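 IMAP fluorescence polarization kit: CDK4/cyclin D3 at 12.5-25 ng/well with kit ATP/substrate/metal mix in 20 mM HEPES pH 7.4, 0.01% Tween20, 2 mM DTT, 45 min at room temperature. FP read at 485/535 nm after 30 min binding; IC50 from dose-response fit of percent inhibition versus enzyme and no-enzyme controls.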

[2] = biological target: T2, CDK2/cyclin A2 (Homo sapiens, UniProt P24941); experiment: Human CDK2/cyclin A2 inhibitory activity (QS S Assist CDK2/Cyclin A2_FP Kit, IMAP fluorescence polarization); assay type: biochemical
T2 construct: purchased Carna Biosciences, Inc. QS S Assist CDK2/Cyclin A2_FP Kit
How it was run: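 Kinase activity read as fluorescence polarization (485/535 nm) after phosphorylated fluorescent substrate binds IMAP reagent (30 min, RT, dark). Enzyme (2.5 ng/well) reacted 60 min at RT with ATP/substrate/metal in HEPES pH 7.4 buffer with Tween 20 and DTT; no-enzyme wells define 0% activity; IC50 by curve fit.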

[3] = 50% inhibitory concentration against CDK4/cyclin D3, given as class symbol
[4] = 50% inhibitory concentration against CDK2/cyclin A2, given as class symbol
[5] = Human CDK4/cyclin D3 inhibitory activity, read-out: CDK4 Activity symbol
[6] = Human CDK2/cyclin A2 inhibitory activity, read-out: CDK2 Activity symbol

T1 sequence (P11802 whole entry): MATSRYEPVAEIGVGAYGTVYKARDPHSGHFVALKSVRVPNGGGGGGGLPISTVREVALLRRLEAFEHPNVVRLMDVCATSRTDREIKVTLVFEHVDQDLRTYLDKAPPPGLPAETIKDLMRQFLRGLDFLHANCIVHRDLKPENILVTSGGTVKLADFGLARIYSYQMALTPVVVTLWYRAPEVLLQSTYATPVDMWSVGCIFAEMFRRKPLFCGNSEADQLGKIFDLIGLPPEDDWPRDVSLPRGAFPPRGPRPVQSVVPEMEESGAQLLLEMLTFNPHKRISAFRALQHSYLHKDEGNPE
T1 sequence (P30281 whole entry partner): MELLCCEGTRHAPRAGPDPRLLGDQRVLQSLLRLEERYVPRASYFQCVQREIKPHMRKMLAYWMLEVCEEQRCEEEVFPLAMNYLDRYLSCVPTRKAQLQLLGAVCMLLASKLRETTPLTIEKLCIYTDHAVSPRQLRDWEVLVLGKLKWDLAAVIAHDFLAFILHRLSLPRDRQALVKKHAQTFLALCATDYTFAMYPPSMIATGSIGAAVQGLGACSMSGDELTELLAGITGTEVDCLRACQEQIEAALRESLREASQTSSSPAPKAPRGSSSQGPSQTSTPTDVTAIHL

IC50 [1, 3] [nM]	IC50 [2, 4] [nM]	IC50 [1, 5] [nM]	IC50 [2, 6] [nM]	Structure (SMILES)
< 10	≥ 100	–	–	COC[C@@H](C)Nc1nc([C@@H](C)O)cc2cnc(Nc3ccc(OCCN(C)C)cn3)nc12 [Compound 785]
< 10	≥ 100	–	–	C[C@@H](O)c1cc2cnc(Nc3ccc4c(n3)CCN(C(=O)CO)C4)nc2c(N[C@H]2CCCOC2)n1 [Compound 1118]
–	–	< 10	10 to 100	CC(C)Nc1nc(C(F)F)cc2cnc(Nc3ccc(N4CCN(C)CC4)cn3)nc12 [Compound 42]
< 10	≥ 100	–	–	CC1(c2cc3cnc(Nc4ccc5c(n4)CCN(C(=O)CO)C5)nc3c(N[C@H]3CCCOC3)n2)COC1 [Compound 1115]
–	–	< 10	≥ 100	CC(=O)c1cc2cnc(Nc3ccc(N4CCNCC4)nn3)nc2c(NC(C)C)n1 [Compound 328]
< 10	≥ 100	–	–	CCNc1nc([C@@H](C)OC)cc2cnc(Nc3ccc(N4CCNCC4)cn3)nc12 [Compound 919]
–	–	10 to 100	≥ 100	CO[C@H](C)c1cc2cnc(Nc3ccc(CN4CCNC(=O)C4)cn3)nc2c(NC(C)C)n1 [Compound 176]
< 10	≥ 100	–	–	CC(C)Nc1nc(C2CCOC2)cc2cnc(Nc3ccc4c(n3)CCN(C(=O)CO)C4)nc12 (stereo not shown) [Compound 1231]
–	–	< 10	10 to 100	CO[C@H](C)c1cc2cnc(Nc3ccc(C(=O)N4CCNCC4)cn3)nc2c(NC(C)C)n1 [Compound 389]
< 10	≥ 100	–	–	C[C@@H](O)c1cc2cnc(Nc3ccc(CN4CCC[C@H](O)C4)cn3)nc2c(NC(C)(C)C)n1 [Compound 1200]
< 10	≥ 100	–	–	CO[C@H](C)c1cc2cnc(Nc3ccc(CN4CCNCC4)cn3)nc2c(NCC(C)C)n1 [Compound 861]
10 to 100	≥ 100	–	–	Cc1nc(Nc2ncc3c(Cl)c(C(F)F)nc(NC(C)C)c3n2)ccc1N1CCNCC1=O [Compound 851]
< 10	≥ 100	–	–	CCNc1nc([C@@H](C)O)cc2cnc(Nc3ccc(CN4CCCC(O)C4)cn3)nc12 (stereo partly shown) [Compound 1080]
< 10	≥ 100	–	–	CC1(c2cc3cnc(Nc4ccc(CN5CCNCC5)cn4)nc3c(NCC3CC3)n2)COC1 [Compound 1109]
–	–	< 10	≥ 100	C[C@@H](O)c1cc2cnc(Nc3ccc(N4CCNCC4)nn3)nc2c(N[C@@H]2CCOC2)n1 [Compound 252]
–	–	< 10	≥ 100	CO[C@H](C)c1cc2cnc(Nc3ccc(CN4CCNCC4)cn3)nc2c(N[C@@H]2CCCOC2)n1 [Compound 301]
< 10	≥ 100	–	–	CCCNc1nc([C@@H](C)O)cc2cnc(Nc3ccc(CN4CCN(CCO)[C@@H](C)C4)cn3)nc12 [Compound 1208]
–	–	< 10	≥ 100	CC(C)Nc1nc([C@@H](C)O)c(Cl)c2cnc(Nc3ccc(N4CCNCC4=O)cn3)nc12 [Compound 247]
–	–	< 10	≥ 100	CO[C@H](C)c1cc2cnc(Nc3ccc(N4CCNCC4)nn3)nc2c(N[C@@H]2CCOC2)n1 [Compound 307]
–	–	< 10	≥ 100	C[C@@H](O)c1cc2cnc(Nc3ccc(N4CCNCC4=O)cn3)nc2c(N[C@@H]2CCOC2)n1 [Compound 348]

IC50 [1, 3] [nM]	IC50 [2, 4] [nM]	IC50 [1, 5] [nM]	IC50 [2, 6] [nM]	Structure (SMILES)
10 to 100	≥ 100	–	–	CC(C)Nc1nc(C2CCOC2)cc2cnc(Nc3ccc(N4CCNCC4=O)cn3)nc12 (single isomer, unassigned) [Compound 774]
< 10	≥ 100	–	–	CCCCNc1nc([C@@H](C)OC)cc2cnc(Nc3ccc(CN4CCN(CCO)CC4)cn3)nc12 [Compound 853]
< 10	≥ 100	–	–	CCNc1nc([C@@H](C)O)cc2cnc(Nc3ccc(CN4CCCN(CCO)CC4)cn3)nc12 [Compound 1216]
< 10	≥ 100	–	–	C[C@@H](O)c1cc2cnc(Nc3ccc(OC[C@H]4CCCN4)cn3)nc2c(N[C@H]2CCCOC2)n1 [Compound 783]
< 10	≥ 100	–	–	CCCCNc1nc(C(C)=O)cc2cnc(Nc3ccc(CN4CCNCC4)cn3)nc12 [Compound 911]
< 10	≥ 100	–	–	CC(C)NC(=O)CN1CCN(c2ccc(Nc3ncc4cc([C@@H](C)O)nc(NC(C)C)c4n3)nn2)CC1 [Compound 968]
–	–	< 10	≥ 100	CC(C)Nc1nc(C(C)O)cc2cnc(Nc3ccc(N4CCC(O)C4)cn3)nc12 (stereo not shown) [Compound 77]
–	–	< 10	≥ 100	CCN1CCN(Cc2ccc(Nc3ncc4cc([C@@H](C)O)nc(NC(C)(C)COC)c4n3)nc2)CC1 [Compound 244]
< 10	≥ 100	–	–	C[C@@H](O)c1cc2cnc(Nc3ccc(N4CCNCC4)cn3)nc2c(NCCCF)n1 [Compound 1212]
10 to 100	≥ 100	–	–	CCC(=O)c1cc2cnc(Nc3ccc(N4CCNCC4=O)cn3)nc2c(NC(C)C)n1 [Compound 1030]
–	–	< 10	≥ 100	CO[C@H](C)c1cc2cnc(Nc3ccc(CN4CCNCC4)cn3)nc2c(N[C@H]2CC[C@H](C(=O)O)CC2)n1 [Compound 343]
–	–	< 10	≥ 100	COCC(C)(C)Nc1nc([C@@H](C)O)cc2cnc(Nc3ccc(N4CCNCC4=O)cn3)nc12 [Compound 206]
–	–	< 10	10 to 100	CC(C)Nc1nc(C(F)F)cc2cnc(Nc3ccc(N4CCNCC4=O)cn3)nc12 [Compound 89]
< 10	≥ 100	–	–	CC(C)Nc1nc([C@@H](C)O)cc2cnc(Nc3ccc(N4CC[C@H](O)C4)nn3)nc12 [Compound 662]
10 to 100	≥ 100	–	–	CC(C)N(C)c1nc([C@@H](C)O)cc2cnc(Nc3ccc(N4CCNCC4=O)cn3)nc12 [Compound 871]
< 10	≥ 100	–	–	CC(C)Nc1nc([C@@H](C)O)cc2cnc(Nc3ccc4c(n3)CCN(S(C)(=O)=O)C4)nc12 [Compound 934]
10 to 100	≥ 100	–	–	CCNc1nc([C@@H](C)OC)cc2cnc(Nc3ccc4c(n3)CCN(CCN(C)C)C4)nc12 [Compound 1131]
–	–	10 to 100	≥ 100	COCC(C)(C)Nc1nc([C@@H](C)O)cc2cnc(Nc3ccc(CN4CCOCC4=O)cn3)nc12 [Compound 198]
< 10	≥ 100	–	–	CCCNc1nc(C2CCOC2)cc2cnc(Nc3ccc(CN4CCNCC4)cn3)nc12 (stereo not shown) [Compound 1005]
–	–	< 10	≥ 100	CC(O)c1cc2cnc(Nc3ccc(N4CCNCC4)cn3)nc2c(Nc2cn[nH]c2)n1 (stereo not shown) [Compound 32]

IC50 [1, 3] [nM]	IC50 [2, 4] [nM]	IC50 [1, 5] [nM]	IC50 [2, 6] [nM]	Structure (SMILES)
< 10	≥ 100	–	–	C[C@@H](O)c1cc2cnc(Nc3ccc(CN4CCN(CCO)CC4)cn3)nc2c(NCC(C)(F)F)n1 [Compound 1215]
< 10	≥ 100	–	–	C[C@@H](O)c1cc2cnc(Nc3ccc4c(n3)CCN(C(=O)OCCN(C)C)C4)nc2c(N[C@H]2CCCOC2)n1 [Compound 1143]
–	–	10 to 100	≥ 100	CC(C)Nc1nc(C(F)F)cc2cnc(Nc3ccc(O[C@H]4CC[C@@H](O)CC4)cn3)nc12 [Compound 119]
–	–	≥ 100	≥ 100	CC(C)Nc1nc(C(F)F)cc2cnc(Nc3ccc(-c4ccccc4)cn3)nc12 [Compound 99]
–	–	10 to 100	≥ 100	CC(C)Nc1nc(C(F)F)cc2cnc(Nc3ccc(CN(CC4CCOCC4)S(C)(=O)=O)cn3)nc12 [Compound 143]
–	–	10 to 100	≥ 100	CC(O)c1cc2cnc(Nc3ccc(N4CCNCC4)cn3)nc2c(N(C)C2CCOCC2)n1 (stereo not shown) [Compound 11]
–	–	< 10	≥ 100	CC(C)Nc1nc([C@@H](C)O)cc2cnc(Nc3ccc(N4CC5(CC(N)C5)C4)nn3)nc12 [Compound 576]
< 10	≥ 100	–	–	CCCCNc1nc([C@@H](C)O)cc2cnc(Nc3ccc(CN4CCN(CCO)CC4)cn3)nc12 [Compound 845]
–	–	10 to 100	10 to 100	CC(C)Nc1nc(C(F)F)cc2cnc(Nc3ccc(N4CCC(C(=O)O)CC4)cn3)nc12 [Compound 90]
< 10	≥ 100	–	–	CC(C)CNc1nc([C@@H](C)O)cc2cnc(Nc3ccc(CN4CCC(CO)CC4)cn3)nc12 [Compound 1024]
< 10	≥ 100	–	–	CC(C)Nc1nc([C@@H](C)O)cc2cnc(Nc3ccc(CN4CCN(C(=O)CO)CC4)cn3)nc12 [Compound 987]
< 10	≥ 100	–	–	CC(C)Nc1nc([C@@H](C)O)cc2cnc(Nc3ccc(N4CC5CCCN5CC4=O)cn3)nc12 (stereo partly shown) [Compound 825]
–	–	< 10	≥ 100	CC(C)Oc1nc(C(F)F)cc2cnc(Nc3ccc(N4CCNCC4)cn3)nc12 [Compound 7]
< 10	≥ 100	–	–	CO[C@H](C)c1cc2cnc(Nc3ccc(N4CCNCC4)nn3)nc2c(NCCCF)n1 [Compound 1226]
–	–	< 10	10 to 100	CC(C)Nc1nc(C(F)F)cc2cnc(Nc3ccc(C4=CC(=O)NCC4)cn3)nc12 [Compound 203]
< 10	10 to 100	–	–	C[C@@H](O)c1cc2cnc(Nc3ccc(N4CCNCC4=O)cn3)nc2c(NC(C)(C)C)n1 [Compound 795]
–	–	< 10	10 to 100	CC(C)Nc1nc(C(F)F)cc2cnc(Nc3ccc(CCO)cn3)nc12 [Compound 134]
–	–	< 10	≥ 100	CC(C)Nc1nc(C(C)O)cc2cnc(Nc3ccc(N4CCN(CCO)CC4)cn3)nc12 (stereo not shown) [Compound 74]

Structure (SMILES)	IC50 [1, 3] [nM]	IC50 [2, 4] [nM]	IC50 [1, 5] [nM]	IC50 [2, 6] [nM]
CO[C@H](C)c1cc2cnc(Nc3ccc(CN4CC5CC(C4)O5)cn3)nc2c(NC(C)C)n1 [Compound 272]	–	–	< 10	≥ 100

— patent US10124004B2, “Pyrido[3,4-d]pyrimidine derivative and pharmaceutically acceptable salt thereof” (Teijin Pharma Limited, priority 2015, dated 2018)
